Test [1] has as its target T1, human galectin-3 (Gal-3) (Homo sapiens, UniProt P17931).
T1 construct: made in house; host or cells: E. coli Rosetta (DE3) pLysS
The test is described as follows: Competitive ELISA: inhibition of His-tagged Gal-3 binding to immobilized asialofetuin (ASF). The conditions noted are these: for increase of inhibitory potency compared to lactose (times): competitive ELISA; for IC50: read-out: IC50 Glycan. The protocol: To assess the inhibitory potential of glycans 1–8 and the respective neo-glycoproteins 9–16 towards Gal-3, their capacity to inhibit the binding of Gal-3 to immobilized asialofetuin (ASF) was determined by competitive ELISA inhibition analyses (Figure 2b). ASF is a multivalent glycoprotein presenting three triantennary N-glycans terminated with LacNAc, which is reported to interact with Gal-3. Here, Gal-3 was incubated with increasing concentrations of the glycans or neo-glycoproteins as competing ligands and the inhibition of Gal-3 binding to immobilized ASF was quantified by colorimetric immunodetection using anti-His antibody conjugated to HRP. […] The respective inhibition constants (IC50) were calculated from the non-linear regression of the sigmoidal inhibition curves and they are listed in Table 1.
In the competitive ELISA design, the F16 Maxisorp NUNC-Immuno Modules (Thermo Scientific, Roskilde, Denmark) were coated overnight with ASF (Sigma Aldrich, Steinheim, Germany; 0.1 µM in PBS, 50 µL, 5 pmol per well) and blocked with BSA (2% w/v) diluted in PBS (1 h, room temperature). […] Detection of bound Gal-3 and data analysis were performed as described above.

In test [2] the target is T2, Gal-3-AVI (Homo sapiens, UniProt P17931).
T2 construct: made in house; host or cells: E. coli BL21 (λDE3), co-expressed with BirA
The test is described as follows: Competitive ELISA with Gal-3-AVI construct. It counts as binding. The conditions noted are these: read-out: IC50 glycan, competitive ELISA.

Test [3] concerns the target T1, human galectin-3 (Gal-3). The conditions noted are these: monovalent glycan; inhibition of Gal-3 binding to immobilized ASF; cited from earlier work.
Test [4] concerns the target T2, Gal-3-AVI. The test is described as follows: Direct ELISA with Gal-3-AVI construct. The conditions noted are these: read-out: Kd app, direct ELISA. Format: binding. From the text: To overcome the difficulties with Gal-3 immobilization, we prepared a biotinylated version of Gal-3 through in vivo biotinylation of an AviTag peptide that was genetically fused to the N-terminus of Gal-3 (Gal-3-AVI) (Figure 3). The AviTag is a specific 15-amino acid peptide sequence ([…]) that directs a highly targeted enzymatic conjugation of a single biotin molecule to the specific lysine (K) residue within the AviTag sequence using biotin ligase (BirA). In contrast to chemical biotinylation, which usually generates heterogeneous products with impaired function, the co-translational biotinylation of the AviTag peptide is site specific and provides a highly homogeneous protein preparation. Moreover, the N-terminal localization of the AviTag peptide provides a favorable orientation of Gal-3-AVI on a streptavidin-coated surface, leaving the C-terminal carbohydrate-binding domain of Gal-3 freely accessible for binding interactions.
Table S1. Comparison of binding affinities of His6-tag Gal-3 and Gal-3-AVI in ELISA assays Kd app [µM], direct ELISA IC50 glycan [µM], competitive ELISA […]
Figure S7. SPR kinetic binding analysis of the interactions between asialofetuin (ASF) and immobilized Gal-3-AVI. ASF was injected in parallel over the neutravidin-coated sensor chip coated with the biotinylated Gal-3-AVI at a flow rate of 30 µl/min. […]

Test [5] has as its target T2, Gal-3-AVI. The test is described as follows: SPR with biotinylated Gal-3-AVI captured on neutravidin chip, neo-glycoproteins as analytes. It counts as binding. The protocol: For SPR analysis, the biotinylated Gal-3-AVI was captured on a neutravidin-coated sensor chip, and the binding of serially diluted neo-glycoproteins 9–16 to immobilized Gal-3-AVI was analyzed. Three coupling concentrations of Gal-3-AVI were tested, so that the effect of mass transfer and the non-specific binding were minimized. As a result, the coupling level of 250 relative units (RU) along with the flow rate of 30 µL/min gave the optimum conditions and these parameters were used for the subsequent experiments.
Figure 4 SPR kinetic binding analysis of the interactions between neo-glycoproteins 9–16 and immobilized Gal-3-AVI. The neo-glycoproteins at indicated concentrations were injected in parallel over the neutravidin-coated sensor chip coated with the biotinylated Gal-3-AVI at a flow rate of 30 μL/min. The kinetic data were globally fitted by using a 1:1 Langmuir binding model. The fitted curves are superimposed as thin black lines on top of the sensograms. BSA, bovine serum albumin; rel., relative.
SPR measurements were performed at 25 °C using a set of sensor chips (GLC, NLC, HTE) mounted on a ProteOn XPR36 Protein Interaction Array System (Bio-Rad, Hercules, CA, USA ) as described previously. Briefly, Gal-3-AVI protein was diluted to a final concentration of 5 µg·mL^−1 in PBS and captured on a neutravidin-coated NLC sensor chip (Bio-Rad) at a flow rate of 30 µL·min^−1. Neo-glycoproteins 9–16, used here as analytes, were serially diluted in the running buffer (PBS supplemented with 0.005% Tween 20), and injected in parallel over the immobilized Gal-3-AVI at a flow rate of 30 µL·min^−1. The Gal-3-AVI surface was regenerated by a washing step with 50 mM HCl for 60 s. For the reversed experimental setup, the neo-glycoproteins 9–16 were immobilized on the GLC sensor chip by amine coupling chemistry and serial dilutions of Gal-3 were injected over the sensor surface. […] The equilibrium dissociation constant, KD, was determined as a ratio between the dissociation and association rate constants: KD=kd/ka

Test [6] addresses T1, human galectin-3 (Gal-3). The test is described as follows: Direct ELISA: binding of soluble His-tagged Gal-3 to immobilized neo-glycoproteins or ASF. From the text:
To determine the binding affinities between Gal-3 and neo-glycoproteins 9–16, the binding of soluble Gal-3 to the neo-glycoproteins immobilized in microplate wells was quantified by colorimetric immunodetection using anti-His antibody conjugated to horseradish peroxidase (HRP) (Figure 2a). Gal-3 bound neo-glycoproteins in a concentration-dependent manner and the interaction was exclusively conferred by glycan moieties since no binding of Gal-3 to the glycan-free BSA was detected. Apparent dissociation constants (Kd) of the Gal-3/neo-glycoprotein complexes were calculated from a non-linear regression of binding curves.
The affinity of Gal-3 for neo-glycoproteins 9–16 was determined using ELISA as reported previously. For the immobilization of the respective neo-glycoproteins or non-modified BSA (negative control), we used F16 Maxisorp NUNC-Immuno Modules (Thermo Scientific, Roskilde, Denmark). Per well, an amount of 5 pmol was incubated overnight at a working concentration of 0.1 µM (PBS). Then the wells were blocked with bovine serum albumin (2% w/v) diluted in PBS (1 h, room temperature). […] The binding signal of bound galectin was measured with a spectrophotometer (Spectra Max Plus, Molecular Devices, Sunnyvale, CA, USA) at an optical density of 450 nm. Obtained data were analyzed using SigmaPlot 10 software (Systat Software GmbH, Erkrath, Germany).

Setting [7] is: immobilized Gal-3-AVI, 1:1 Langmuir model, 25 °C.

Where two headings read alike, the source gives them in different places.

T2 sequence (P17931 whole entry): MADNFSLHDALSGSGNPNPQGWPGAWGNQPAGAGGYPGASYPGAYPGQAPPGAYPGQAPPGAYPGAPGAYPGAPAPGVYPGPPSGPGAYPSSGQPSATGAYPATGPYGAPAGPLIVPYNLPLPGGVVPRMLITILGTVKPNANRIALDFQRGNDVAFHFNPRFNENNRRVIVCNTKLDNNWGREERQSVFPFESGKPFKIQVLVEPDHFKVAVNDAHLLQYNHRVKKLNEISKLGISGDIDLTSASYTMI
T1 sequence (P17931 whole entry): as above

Take `CC(=O)N[C@@H]1[C@@H](O)[C@H](O[C@@H]2O[C@H](CO)[C@H](O)[C@H](O)[C@H]2NC(C)=O)[C@@H](CO)O[C@H]1NC(=S)NCCNC(=O)OC(C)(C)C` [glycan 1, LacdiNAc]: at human galectin-3 (Gal-3) [1], the “increase of inhibitory potency compared to lactose (times)” value is listed as “up to 4” and the IC50 stood at 42 ± 2 µM. The IC50 at Gal-3-AVI [2] is 43 ± 4 µM.

As for `CC(=O)N[C@@H]1[C@@H](O)[C@H](O[C@@H]2O[C@H](CO)[C@H](O)[C@H](O)[C@H]2O)[C@@H](CO)O[C@H]1NC(=S)NCCNC(=O)OC(C)(C)C` [glycan 2], on human galectin-3 (Gal-3) [1], the “increase of inhibitory potency compared to lactose (times)” value was “up to 4” and the IC50 worked out at 36 ± 1 µM.

As for `CC(=O)N[C@@H]1[C@@H](O)[C@H](O[C@@H]2O[C@H](CO)[C@H](O)[C@H](O[C@@H]3O[C@H](CO)[C@@H](O[C@@H]4O[C@H](CO)[C@H](O)[C@H](O)[C@H]4NC(C)=O)[C@H](O)[C@H]3NC(C)=O)[C@H]2O)[C@@H](CO)O[C@H]1NC(=S)NCCNC(=O)OC(C)(C)C` [glycan 3, LacdiNAc-LacNAc], at human galectin-3 (Gal-3) [3], the IC50 was 7 ± 1 µM.

Turning to `CC(=O)N[C@@H]1[C@@H](O)[C@H](O[C@@H]2O[C@H](CO)[C@H](O)[C@H](O[C@@H]3O[C@H](CO)[C@@H](O[C@@H]4O[C@H](CO)[C@H](O)[C@H](O)[C@H]4O)[C@H](O)[C@H]3NC(C)=O)[C@H]2O)[C@@H](CO)O[C@H]1NC(=S)NCCNC(=O)OC(C)(C)C` [glycan 4, LacNAc-LacNAc], on human galectin-3 (Gal-3) [3], the half-maximal inhibitory concentration (IC50) is 13 ± 3 µM.

Regarding `CC(=O)N[C@@H]1[C@@H](O)[C@H](O[C@@H]2O[C@H](CO)[C@H](O)[C@H](O[C@@H]3O[C@H](CO)[C@@H](O[C@@H]4O[C@H](CO)[C@H](O)[C@H](O[C@@H]5O[C@H](CO)[C@@H](O[C@@H]6O[C@H](CO)[C@H](O)[C@H](O)[C@H]6NC(C)=O)[C@H](O)[C@H]5NC(C)=O)[C@H]4O)[C@H](O)[C@H]3NC(C)=O)[C@H]2O)[C@@H](CO)O[C@H]1NC(=S)NCCNC(=O)OC(C)(C)C` [glycan 5, LacdiNAc-LacNAc-LacNAc], the IC50 at human galectin-3 (Gal-3) [3] is 6.2 ± 0.02 µM.

On to `CC(=O)N[C@@H]1[C@@H](O)[C@H](O[C@@H]2O[C@H](CO)[C@H](O)[C@H](O[C@@H]3O[C@H](CO)[C@@H](O[C@@H]4O[C@H](CO)[C@H](O)[C@H](O[C@@H]5O[C@H](CO)[C@@H](O[C@@H]6O[C@H](CO)[C@H](O)[C@H](O)[C@H]6O)[C@H](O)[C@H]5NC(C)=O)[C@H]4O)[C@H](O)[C@H]3NC(C)=O)[C@H]2O)[C@@H](CO)O[C@H]1NC(=S)NCCNC(=O)OC(C)(C)C` [glycan 6, LacNAc-LacNAc-LacNAc], for which the IC50 on human galectin-3 (Gal-3) [3] is 20.1 ± 0.1 µM.

As for `CC(=O)N[C@@H]1[C@@H](O)[C@H](O[C@@H]2O[C@H](CO)[C@H](O)[C@H](O[C@@H]3O[C@H](CO)[C@@H](O[C@@H]4O[C@H](CO)[C@H](O)[C@H](O[C@@H]5O[C@H](CO)[C@@H](O)[C@H](O[C@@H]6O[C@H](CO)[C@H](O)[C@H](O)[C@H]6O)[C@H]5NC(C)=O)[C@H]4O)[C@H](O)[C@H]3NC(C)=O)[C@H]2O)[C@@H](CO)O[C@H]1NC(=S)NCCNC(=O)OC(C)(C)C` [glycan 7, LacNAc type 1-LacNAc-LacNAc], the IC50 at human galectin-3 (Gal-3) [3] was 12.5 ± 0.1 µM.

Take `CC(=O)N[C@@H]1[C@@H](O)[C@H](O[C@@H]2O[C@H](CO)[C@H](O)[C@H](O[C@@H]3O[C@H](CO)[C@@H](O[C@@H]4O[C@H](CO)[C@H](O)[C@H](O[C@@H]5O[C@H](CO)[C@@H](O[C@@H]6O[C@H](CO)[C@H](O)[C@H](O[C@H]7O[C@H](CO)[C@H](O)[C@H](O)[C@H]7O)[C@H]6O)[C@H](O)[C@H]5NC(C)=O)[C@H]4O)[C@H](O)[C@H]3NC(C)=O)[C@H]2O)[C@@H](CO)O[C@H]1NC(=S)NCCNC(=O)OC(C)(C)C` [glycan 8, Galili-LacNAc-LacNAc]: the IC50 on human galectin-3 (Gal-3) [3] was 8.4 ± 0.1 µM.

In the case of Asialofetuin [ASF], the Kd in the test with Gal-3-AVI [4] came out at 4.8 ± 0.2 µM. Moreover, in the test with Gal-3-AVI [5] (setting [7]), the ka entry is listed as “(4.8 ± 1.9) × 10^4 M^−1·s^−1” and the kd result is given as “(4.0 ± 1.7) × 10^−4 s^−1”. Further, the Kd with human galectin-3 (Gal-3) [6] (His6-tag Gal-3, read-out: Kd app, direct ELISA) amounted to 5 ± 1 µM.

Take bovine serum albumin [BSA]: at Gal-3-AVI [5] (nanomolar concentrations), the “SPR response / binding to immobilized Gal-3-AVI” value is “no binding”. The “binding of Gal-3 in direct ELISA” value on human galectin-3 (Gal-3) [6] (negative control, immobilized) was “no binding”.

The values above are taken from publication PMC5855594, “Poly-N-Acetyllactosamine Neo-Glycoproteins as Nanomolar Ligands of Human Galectin-3: Binding Kinetics and Modeling” (International Journal of Molecular Sciences, 2018).
